Measurements as given in PubChem BioAssay AID1963442 (Molecular Pharmacology Branch, DTP, NCI, 2024).
Values joined by “and” are separate entries in the source; they are usually repeats but may differ in a detail not shown here. Equal entries are not always repeated.

Tested on: MPNST complex spheroid with HUVEC/MSC, growth, % test/control
Assay: Anticancer human tumor MPNST cell line growth inhibition [Asc];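 note: compounds left on spheroids for seven days before reading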
Conditions: for viability, T/C: stronger effect = lower value
In short: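 Complex spheroids combining tumor cells with HUVEC endothelial cells and human MSCs, at 37 degrees C, 5% CO2; agents tested alone or combined, half-log dilutions from at or near clinical Cmax, or 10 microM if Cmax unknown.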

[1] = curve of first compound, second compound 0.00316 µM
[2] = curve of first compound, second compound 0.01 µM
[3] = curve of first compound, second compound 0.0316 µM
[4] = curve of first compound, second compound 0.1 µM
[5] = curve of first compound, second compound 0.316 µM
[6] = curve of first compound, second compound 1 µM
[7] = second compound 0.00316 µM, first compound 0.0316 µM
[8] = second compound 0.00316 µM, first compound 0.1 µM
[9] = second compound 0.00316 µM, first compound 0.316 µM
[10] = second compound 0.00316 µM, first compound 1 µM
[11] = second compound 0.00316 µM, first compound 3.16 µM
[12] = second compound 0.00316 µM, first compound 10 µM
[13] = second compound 0.01 µM, first compound 0.0316 µM
[14] = second compound 0.01 µM, first compound 0.1 µM
[15] = second compound 0.01 µM, first compound 0.316 µM
[16] = second compound 0.01 µM, first compound 1 µM
[17] = second compound 0.01 µM, first compound 3.16 µM
[18] = second compound 0.01 µM, first compound 10 µM
[19] = second compound 0.0316 µM, first compound 0.0316 µM
[20] = second compound 0.0316 µM, first compound 0.1 µM
[21] = second compound 0.0316 µM, first compound 0.316 µM
[22] = second compound 0.0316 µM, first compound 1 µM
[23] = second compound 0.0316 µM, first compound 3.16 µM
[24] = second compound 0.0316 µM, first compound 10 µM
[25] = second compound 0.1 µM, first compound 0.0316 µM
[26] = second compound 0.1 µM, first compound 0.1 µM
[27] = second compound 0.1 µM, first compound 0.316 µM
[28] = second compound 0.1 µM, first compound 1 µM
[29] = second compound 0.1 µM, first compound 3.16 µM
[30] = second compound 0.1 µM, first compound 10 µM
[31] = second compound 0.316 µM, first compound 0.0316 µM
[32] = second compound 0.316 µM, first compound 0.1 µM
[33] = second compound 0.316 µM, first compound 0.316 µM
[34] = second compound 0.316 µM, first compound 1 µM
[35] = second compound 0.316 µM, first compound 3.16 µM
[36] = second compound 0.316 µM, first compound 10 µM
[37] = second compound 1 µM, first compound 0.0316 µM
[38] = second compound 1 µM, first compound 0.1 µM
[39] = second compound 1 µM, first compound 0.316 µM
[40] = second compound 1 µM, first compound 1 µM
[41] = second compound 1 µM, first compound 3.16 µM
[42] = second compound 1 µM, first compound 10 µM

For Cc1c(S(C)(=O)=O)c(-c2cc(F)cc(N3CCN(c4ccc(NS(=O)(=O)c5ccc(NC(CCN6CCC(C(=O)OCCCP(=O)(O)O)CC6)CSc6ccccc6)c(S(=O)(=O)C(F)(F)F)c5)cc4)CC3)c2)c(-c2ccc(Cl)cc2)n1C(C)C (stereo unspecified), the IC50 (compound alone, run of 10/11/2022) was over 10000 nM.

With C=C(F)C(=O)N1CCN(c2nc(OCC3CCCN3C)nc3c2CCN(c2cccc4cccc(Cl)c24)C3)CC1CC#N (stereo unspecified) the viability, T/C (compound 0.0316 µM) was 65.6% and 93.2% and 99.3%, the viability, T/C (compound 0.1 µM) was 75% and 68.3% and 86.5% and the viability, T/C (compound 0.316 µM) was 90.8% and 73% and 75.3%. The viability, T/C (compound 1 µM) was 85% and 68.2% and 94.8%, the viability, T/C (compound 3.16 µM) was 48.5% and 60.2% and 82.2% and the IC50 (curve of compound) was 2990 nM and > 10000 nM.

In the case of Cn1ncnc1[C@H]1c2n[nH]c(=O)c3cc(F)cc(c23)N[C@@H]1c1ccc(F)cc1 + CCN1C(C(=O)NC23CCC(C(=O)O)(CC2)CC3)C(c2cccc(Cl)c2F)C2(C(=O)Nc3cc(Cl)ccc32)C12CCCCC2, the IC50 (curve of first compound, second compound 0.03 µM) is reported as 47.2 nM, the IC50 (curve of first compound, second compound 0.0949 µM) is reported as over 100 nM and the IC50 (curve of first compound, second compound 0.3 µM) is reported as over 100 nM. It also gave an IC50 (curve of first compound, second compound 0.949 µM) of over 100 nM, an IC50 (curve of first compound, second compound 3 µM) of over 100 nM and a viability, T/C (second compound 0.03 µM, first compound 0.000316 µM) of 84.6%. The viability, T/C (second compound 0.03 µM, first compound 0.001 µM) was 82%, the viability, T/C (second compound 0.03 µM, first compound 0.00316 µM) was 80.2% and the viability, T/C (second compound 0.03 µM, first compound 0.01 µM) was 65.9%. It also gave a viability, T/C (second compound 0.03 µM, first compound 0.0316 µM) of 54.4%, a viability, T/C (second compound 0.03 µM, first compound 0.1 µM) of 43.4% and a viability, T/C (second compound 0.0949 µM, first compound 0.000316 µM) of 106%. It also gave a viability, T/C (second compound 0.0949 µM, first compound 0.001 µM) of 91.9%, a viability, T/C (second compound 0.0949 µM, first compound 0.00316 µM) of 97.7% and a viability, T/C (second compound 0.0949 µM, first compound 0.01 µM) of 95.5%. It also gave a viability, T/C (second compound 0.0949 µM, first compound 0.0316 µM) of 74.9%, a viability, T/C (second compound 0.0949 µM, first compound 0.1 µM) of 52.1% and a viability, T/C (second compound 0.3 µM, first compound 0.000316 µM) of 106%. It also gave a viability, T/C (second compound 0.3 µM, first compound 0.001 µM) of 92.9%, a viability, T/C (second compound 0.3 µM, first compound 0.00316 µM) of 88.4% and a viability, T/C (second compound 0.3 µM, first compound 0.01 µM) of 91.7%. For the same molecule, the viability, T/C (second compound 0.3 µM, first compound 0.0316 µM) was 91.1%, the viability, T/C (second compound 0.3 µM, first compound 0.1 µM) was 57.7% and the viability, T/C (second compound 0.949 µM, first compound 0.000316 µM) was 80.2%. For the same molecule, the viability, T/C (second compound 0.949 µM, first compound 0.001 µM) was 109%, the viability, T/C (second compound 0.949 µM, first compound 0.00316 µM) was 79.8% and the viability, T/C (second compound 0.949 µM, first compound 0.01 µM) was 90.6%. The viability, T/C (second compound 0.949 µM, first compound 0.0316 µM) was 81.2%, the viability, T/C (second compound 0.949 µM, first compound 0.1 µM) was 70.7% and the viability, T/C (second compound 3 µM, first compound 0.000316 µM) was 97.1%. It also gave a viability, T/C (second compound 3 µM, first compound 0.001 µM) of 94.3%, a viability, T/C (second compound 3 µM, first compound 0.00316 µM) of 89.8% and a viability, T/C (second compound 3 µM, first compound 0.01 µM) of 86.6%. The viability, T/C (second compound 3 µM, first compound 0.0316 µM) was 73.6% and the viability, T/C (second compound 3 µM, first compound 0.1 µM) was 72.7%.

O=C(c1cc(Cc2n[nH]c(=O)c3ccccc23)ccc1F)N1CCN(C(=O)C2CC2)CC1 + CNC(C)C(=O)NC1CN(S(=O)(=O)c2cccc(S(=O)(=O)N3CCC4CCC(C(=O)NC(c5ccccc5)c5ccccc5)N4C(=O)C(NC(=O)C(C)NC)C3)c2)CCC2CCC(C(=O)NC(c3ccccc3)c3ccccc3)N2C1=O showed an IC50 [1] of under 31.6 nM, an IC50 [2] of under 31.6 nM and an IC50 [3] of 2010 nM. For the same molecule, the IC50 [4] was 2460 nM, the IC50 [5] was 2510 nM and the IC50 [6] was 3390 nM. It also gave a viability, T/C [7] of 12.7%, a viability, T/C [8] of 10.7% and a viability, T/C [9] of 13.4%. The viability, T/C [10] was 12.9%, the viability, T/C [11] was 12.1% and the viability, T/C [12] was 13.7%. The viability, T/C [13] was 41%, the viability, T/C [14] was 36.8% and the viability, T/C [15] was 50.4%. The viability, T/C [16] was 44.6%, the viability, T/C [17] was 26.4% and the viability, T/C [18] was 27.4%. The viability, T/C [19] was 76.2%, the viability, T/C [20] was 65.6% and the viability, T/C [21] was 59.9%. For the same molecule, the viability, T/C [22] was 64.3%, the viability, T/C [23] was 40.4% and the viability, T/C [24] was 37.7%. For the same molecule, the viability, T/C [25] was 76.5%, the viability, T/C [26] was 85% and the viability, T/C [27] was 82.4%. It also gave a viability, T/C [28] of 79.8%, a viability, T/C [29] of 41.8% and a viability, T/C [30] of 38.8%. The viability, T/C [31] was 100%, the viability, T/C [32] was 66% and the viability, T/C [33] was 84.7%. It also gave a viability, T/C [34] of 81.3%, a viability, T/C [35] of 41.8% and a viability, T/C [36] of 42.4%. The viability, T/C [37] was 75.8%, the viability, T/C [38] was 63.4% and the viability, T/C [39] was 60%. For the same molecule, the viability, T/C [40] was 68.2%, the viability, T/C [41] was 45.3% and the viability, T/C [42] was 42%.

Work on C#Cc1c(F)ccc2cc(O)cc(-c3ncc4c(N5CC6CCC(C5)N6)nc(OCC56CCCN5CC(F)C6)nc4c3F)c12 (stereo unspecified) + CNC(C)C(=O)NC1CN(S(=O)(=O)c2cccc(S(=O)(=O)N3CCC4CCC(C(=O)NC(c5ccccc5)c5ccccc5)N4C(=O)C(NC(=O)C(C)NC)C3)c2)CCC2CCC(C(=O)NC(c3ccccc3)c3ccccc3)N2C1=O yielded an IC50 [1] of over 10000 nM, an IC50 [2] of over 10000 nM and an IC50 [3] of over 10000 nM. The IC50 [4] was over 10000 nM, the IC50 [5] was over 10000 nM and the IC50 [6] was over 10000 nM. It also gave a viability, T/C [7] of 65.6%, a viability, T/C [8] of 43.9% and a viability, T/C [9] of 57.7%. For the same molecule, the viability, T/C [10] was 78.2%, the viability, T/C [11] was 75.3% and the viability, T/C [12] was 53%. It also gave a viability, T/C [13] of 96%, a viability, T/C [14] of 99.5% and a viability, T/C [15] of 60.1%. The viability, T/C [16] was 63.5%, the viability, T/C [17] was 73.1% and the viability, T/C [18] was 46.2%. It also gave a viability, T/C [19] of 103%, a viability, T/C [20] of 66.8% and a viability, T/C [21] of 69%. For the same molecule, the viability, T/C [22] was 70.5%, the viability, T/C [23] was 52.1% and the viability, T/C [24] was 56.6%. It also gave a viability, T/C [25] of 56%, a viability, T/C [26] of 67.8% and a viability, T/C [27] of 78.2%. For the same molecule, the viability, T/C [28] was 64.1%, the viability, T/C [29] was 63.2% and the viability, T/C [30] was 53.1%. For the same molecule, the viability, T/C [31] was 73.2%, the viability, T/C [32] was 75.1% and the viability, T/C [33] was 70%. It also gave a viability, T/C [34] of 58.3%, a viability, T/C [35] of 60.3% and a viability, T/C [36] of 67.3%. The viability, T/C [37] was 76%, the viability, T/C [38] was 79.5% and the viability, T/C [39] was 69.4%. The viability, T/C [40] was 82.5%, the viability, T/C [41] was 62.2% and the viability, T/C [42] was 84.3%.
